Measurements published in PMC4274664, “Arabidopsis cytosolic acyl-CoA-binding proteins ACBP4, ACBP5 and ACBP6 have overlapping but distinct roles in seed development” (Bioscience Reports, 2014).
Read-outs that look alike come from different tables or passages of the source.

Key:
rAtACBP6 = target: T1, rAtACBP6 (Arabidopsis thaliana, UniProt P57752); assay: ITC of acyl-CoA esters binding to rAtACBP6; details: for n: mean of three experiments±S.D., stoichiometry of ligand-to-protein binding; for ΔG: in kcal/mol
T1 construct: made in house; host or cells: Escherichia coli
T1 sequence (P57752 1-92): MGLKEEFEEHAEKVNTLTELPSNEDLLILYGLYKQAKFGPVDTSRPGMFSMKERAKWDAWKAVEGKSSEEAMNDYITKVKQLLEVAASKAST
Description: (§1) The protein expression plasmids containing full-length AtACBP4 and AtACBP5 cDNA were previously constructed in the vector pRSETB (Invitrogen) as pAT184 and pAT185, respectively. Recombinant (His)6-AtACBP4 and (His)6-AtACBP5 proteins (rAtACBP4 and rAtACBP5) were expressed in Escherichia coli, purified and refolded according to Leung et al.. The coding sequence of AtACBP6 was amplified by PCR with primer pairs ACBP-F1 and ACBP-R1 and cloned into expression vector pEXP5-NT/TOPO (Invitrogen) to generate plasmid pEXP-ACBP6. Sequences of primers are listed in Supplementary Table S1. Recombinant (His)6-AtACBP6 (rAtACBP6) was expressed in E. coli and purified following Chye. The three recombinant proteins were dialysed in 10 mM sodium phosphate buffer (pH 7.0). Protein concentrations were determined by the standard Bradford assay (Bio-Rad).
(§2) Calorimetric titration was performed with a MicroCal iTC200 system (GE Healthcare) at 30°C. Long-chain acyl-CoA esters (Avanti Polar Lipids, Inc.) were dissolved in 10 mM sodium phosphate buffer (pH 7.0) to a final concentration of 0.25, 0.5 and 1 mM. The solution was degassed and loaded into a syringe, while 15 μM rAtACBP6, 6 μM rAtACBP4 or 60 μM rAtACBP5, was placed into the sample cell. For all titrations, 1.8 μl ligand was injected into the sample cell at 150 s intervals with a stirring speed of 1000 rpm. The titrations were completed after 20 injections. All data were collected automatically, and non-specific heat effects were estimated and corrected after saturation following the instructions of the manufacturer. Raw data were integrated and analysed using the Origin v.7.0 software accompanying the calorimeter.

rAtACBP4 = target: T2, rAtACBP4 (Arabidopsis thaliana, UniProt Q9MA55); assay: ITC of acyl-CoA esters binding to rAtACBP4; details: for n: mean of three experiments±S.D., stoichiometry of ligand-to-protein binding; for ΔG: in kcal/mol
T2 sequence (Q9MA55 1-668): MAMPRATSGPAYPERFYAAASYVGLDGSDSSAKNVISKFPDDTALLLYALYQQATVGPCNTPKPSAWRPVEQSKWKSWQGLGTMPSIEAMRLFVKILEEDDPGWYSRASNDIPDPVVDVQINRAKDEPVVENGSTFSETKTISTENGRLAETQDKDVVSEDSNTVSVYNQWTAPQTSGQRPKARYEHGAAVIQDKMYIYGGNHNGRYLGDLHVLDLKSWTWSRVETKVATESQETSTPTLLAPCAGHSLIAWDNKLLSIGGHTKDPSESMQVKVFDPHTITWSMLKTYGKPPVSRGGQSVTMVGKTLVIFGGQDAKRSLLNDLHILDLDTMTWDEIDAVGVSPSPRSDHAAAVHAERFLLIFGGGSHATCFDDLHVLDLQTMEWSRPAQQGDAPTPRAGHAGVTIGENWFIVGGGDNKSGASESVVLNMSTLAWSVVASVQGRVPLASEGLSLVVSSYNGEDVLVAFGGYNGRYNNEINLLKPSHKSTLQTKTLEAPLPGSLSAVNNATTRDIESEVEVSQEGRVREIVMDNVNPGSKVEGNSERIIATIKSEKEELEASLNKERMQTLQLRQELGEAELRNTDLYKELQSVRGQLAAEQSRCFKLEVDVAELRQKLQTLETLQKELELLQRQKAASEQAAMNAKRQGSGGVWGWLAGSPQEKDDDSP
Description: as §1, §2

rAtACBP5 = target: T3, rAtACBP5 (Arabidopsis thaliana, UniProt Q8RWD9); assay: ITC of acyl-CoA esters binding to rAtACBP5; details: for n: mean of three experiments±S.D., stoichiometry of ligand-to-protein binding; for ΔG: in kcal/mol
T3 sequence (Q8RWD9 1-648): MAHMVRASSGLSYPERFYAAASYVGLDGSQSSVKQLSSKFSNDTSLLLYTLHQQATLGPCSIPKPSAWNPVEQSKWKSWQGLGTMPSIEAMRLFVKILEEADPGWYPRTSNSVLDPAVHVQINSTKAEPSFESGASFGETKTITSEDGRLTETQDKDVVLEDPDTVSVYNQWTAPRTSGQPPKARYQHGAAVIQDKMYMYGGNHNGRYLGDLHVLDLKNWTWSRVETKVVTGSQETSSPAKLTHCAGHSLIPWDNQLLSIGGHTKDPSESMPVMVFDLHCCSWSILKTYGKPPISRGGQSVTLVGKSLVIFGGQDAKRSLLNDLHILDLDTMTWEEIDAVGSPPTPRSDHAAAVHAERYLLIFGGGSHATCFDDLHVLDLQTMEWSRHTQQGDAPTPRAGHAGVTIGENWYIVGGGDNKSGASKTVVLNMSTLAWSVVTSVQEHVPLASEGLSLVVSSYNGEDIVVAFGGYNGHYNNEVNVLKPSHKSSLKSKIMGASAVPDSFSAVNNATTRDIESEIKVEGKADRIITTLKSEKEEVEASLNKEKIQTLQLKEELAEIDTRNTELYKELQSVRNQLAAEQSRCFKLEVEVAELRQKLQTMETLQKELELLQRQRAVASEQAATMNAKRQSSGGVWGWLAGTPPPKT
Description: as §1, §2

10-kDa bovine ACBP = target: 10-kDa bovine ACBP; parameters: method as in PMID 8166635; details: read-out: binding affinity; cited from earlier work
yeast ACBP = target: yeast ACBP; parameters: method as in PMID 8093000; details: read-out: binding affinity; cited from earlier work
[1] = tested on: Arabidopsis seeds (Col-0 and acbp double/triple mutants); assay: Seed germination under ABA treatment; format: in vivo; details: for seeds germinated / germination rate: 0.2 μM ABA, within 2 days
Method: Seeds of wild-type Arabidopsis Col-0 were purchased from the ABRC (Arabidopsis Biological Resource Center). The double and triple mutants of AtACBP4, AtACBP5 and AtACBP6 were generated by crossing the respective single mutants. To sterilize Arabidopsis seeds, a solution containing 20% bleach and 0.1% (v/v) Tween 20 was used. Seeds were subjected to 20 min vigorous shaking in this solution, washed six times in distilled water, and then spread on MS (Murashige and Skoog) medium (Sigma-Aldrich) containing 2% (w/v) sucrose, and 0, 0.2 or 0.4 μM ABA (abscisic acid). After 4°C stratification for 2 days, the plates were placed under 16 h-light/8 h-dark cycles (22°C) in a tissue culture room. The rates of seed germination were scored when radicle protrusion occurred.

[2] = ITC, 30°C, 10 mM sodium phosphate buffer pH 7.0
[3] = ITC, 30°C, 10 mM sodium phosphate buffer pH 7.0, mean of three±S.D.
[4] = ITC, 30°C, 10 mM sodium phosphate buffer pH 7.0, mean of three±S.D., read-out: Kd

SMILES | ΔS (rAtACBP6; [2]) | n (rAtACBP6; [2]) | ΔH (rAtACBP6; [3]) | ΔG (rAtACBP6; [3]) | ΔS (rAtACBP4; [2]) | n (rAtACBP4; [2]) | ΔH (rAtACBP4; [3]) | ΔG (rAtACBP4; [3]) | ΔS (rAtACBP5; [2]) | n (rAtACBP5; [2]) | ΔH (rAtACBP5; [3]) | ΔG (rAtACBP5; [3]) | Kd (rAtACBP6; [4]) | Kd (rAtACBP4; [4]) | Kd (rAtACBP5; [4]) | also measured
CCCCCCCCCCCCCC(=O)SCCNC(=O)CCNC(=O)[C@H](O)C(C)(C)COP(=O)(O)OP(=O)(O)OC[C@H]1O[C@@H](n2cnc3c(N)ncnc32)[C@H](O)[C@@H]1OP(=O)(O)O [14:0] | -4.6 cal/(mol·K) | 1 | -11.6 ± 1.4 kcal/mol | −10.2±0.2 | -158 cal/(mol·K) | 1 | -53.5 ± 6.9 kcal/mol | −5.8±0.1 | 7.7 cal/(mol·K) | 0.9 | -3.7 ± 1.2 kcal/mol | −6.1±0.0 | – | – | – | Kd (rAtACBP6): 0.0387 ± 0.0045 µM; Kd (rAtACBP4): 65.3 ± 22.6 µM; Kd (rAtACBP5): 41.9 ± 2.2 µM
CCCCCCCCCCCCCCCC(=O)SCCNC(=O)CCNC(=O)[C@H](O)C(C)(C)COP(=O)(O)OP(=O)(O)OC[C@H]1O[C@@H](n2cnc3c(N)ncnc32)[C@H](O)[C@@H]1OP(=O)(O)O [16:0, palmitoyl-CoA] | -11.5 cal/(mol·K) | 1 ± 0.1 | -13.7 ± 2.4 kcal/mol | −10.2±0.0 | -236 cal/(mol·K) | 1 | -77.4 ± 2.5 kcal/mol | −6.1±0.2 | -16.7 cal/(mol·K) | 0.9 | -11.2 ± 0.5 kcal/mol | −6.2±0.0 | 0.0359 ± 0.0084 µM | 23.5 ± 27.1 µM | 35.7 ± 1 µM | weaker binding than armadillo ACBP (rAtACBP4; rAtACBP4 versus armadillo ACBP): 1000 fold; weaker binding than armadillo ACBP (rAtACBP5; rAtACBP5 versus armadillo ACBP): 1000 fold; Kd (10-kDa bovine ACBP): 4.5 pM; Kd (yeast ACBP): 0.0055 µM
CCCCCCCCCCCCCCCCCC(=O)SCCNC(=O)CCNC(=O)[C@H](O)C(C)(C)COP(=O)(O)OP(=O)(O)OC[C@H]1O[C@@H](n2cnc3c(N)ncnc32)[C@H](O)[C@@H]1OP(=O)(O)O [18:0] | -6.6 cal/(mol·K) | 1 | -12 ± 2.5 kcal/mol | −10.0±0.3 | -0.6 cal/(mol·K) | 1.1 ± 0.1 | -8.9 ± 1 kcal/mol | −8.7±1.0 | -37.2 cal/(mol·K) | 1 | -17.4 ± 0.1 kcal/mol | −6.2±0.0 | 0.0606 ± 0.0024 µM | 2.7 ± 1.6 µM | 35.4 ± 1.4 µM | –
CC1=CC(=O)CC(C)(C)[C@@]1(O)/C=C/C(C)=C\C(=O)O [ABA, abscisic acid] | – | – | – | – | – | – | – | – | – | – | – | – | – | – | – | seeds germinated ([1]; Col-0 seeds): 60%; seeds germinated ([1]; acbp4acbp5acbp6 seeds): 19%; germination rate ([1]; acbp4acbp5 seeds): 40%; germination rate ([1]; acbp4acbp6 seeds): 32%; germination rate ([1]; acbp5acbp6 seeds): 33%; germination rate in comparison with Col-0 ([1]; all double and triple mutants, 0.4 μM ABA): lower germination rates
CC/C=C\C/C=C\C/C=C\CCCCCCCC(=O)SCCNC(=O)CCNC(=O)[C@H](O)C(C)(C)COP(=O)(O)OP(=O)(O)OC[C@H]1O[C@@H](n2cnc3c(N)ncnc32)[C@H](O)[C@@H]1OP(=O)(O)O [18:3, linolenoyl-CoA] | -7.7 cal/(mol·K) | 1.1 | -12.1 ± 1.3 kcal/mol | −9.7±0.1 | -300 cal/(mol·K) | 1 | -96.2 ± 5.3 kcal/mol | −5.1±0.0 | -7.4 cal/(mol·K) | 1.2 ± 0.1 | -7.8 ± 1.3 kcal/mol | −5.6±0.1 | 0.0841 ± 0.0029 µM | 189 ± 0.5 µM | 92.4 ± 10.7 µM | –
CCCCC/C=C\C/C=C\CCCCCCCC(=O)SCCNC(=O)CCNC(=O)[C@H](O)C(C)(C)COP(=O)(O)OP(=O)(O)OC[C@H]1O[C@@H](n2cnc3c(N)ncnc32)[C@H](O)[C@@H]1OP(=O)(O)O [18:2, linoleoyl-CoA] | -6.7 cal/(mol·K) | 1.1 | -12.3 ± 1.4 kcal/mol | −10.2±0.2 | -224 cal/(mol·K) | 1 | -73.7 ± 2.6 kcal/mol | −5.8±0.2 | -14.7 cal/(mol·K) | 1 | -10.2 ± 0.2 kcal/mol | −5.8±0.0 | 0.0364 ± 0.0049 µM | 73.8 ± 0.3 µM | 64.1 µM | –
CCCCCCCC/C=C\CCCCCCCC(=O)SCCNC(=O)CCNC(=O)[C@H](O)C(C)(C)COP(=O)(O)OP(=O)(O)OC[C@H]1O[C@@H](n2cnc3c(N)ncnc32)[C@H](O)[C@@H]1OP(=O)(O)O [18:1, oleoyl-CoA] | 11.4 cal/(mol·K) | 1.9 ± 0.1 | -6.7 ± 3.8 kcal/mol | −10.2±0.1 | -4.3 cal/(mol·K) | 2.1 | -6.9 ± 0.1 kcal/mol | −5.6±0.0 | -1.8 cal/(mol·K) | 0.9 | -6.2 ± 0.2 kcal/mol | −5.7±0.0 | 0.0453 ± 0.0043 µM | 95.2 µM | 74.4 ± 3.5 µM | n (stoichiometry of ligand-to-protein binding) (rAtACBP6; ITC): 1.9
